Laboratory results taken from patent US20060127980A1, “Human excitatory amino acid transporter-2 gene promoter and uses thereof” (priority 2003, published 2006).

What was measured:
[1] = test system: hEAAT2 transcription; assay: Nuclear run-on assay of hEAAT2 transcription in PHFA; format: cell-based, human; conditions: 7-day treatment
Description: (§1) FIG. 4A-D. Effect of modulators of hEAAT2 activity on hEAAT2 expression and hEAAT2 promoter activity in PHFA. A. A Northern analysis of hEAAT2 and GAPDH mRNA expression following treatment with EGF (30 ng/ml), TGF-α (30 ng/ml), dbcAMP (200 μM, bromo-cAMP (100 μM) or TNF-α (200 U/ml) for 7 days. B. Nuclear run-on assays determining the relative rates of hEAAT2 and GAPDH transcription as a function of 7-day treatment with the same concentrations of the indicated agents. C. A time course of mRNA expression of hEAAT2 and GAPDH following treatment with EGF, bromo-cAMP or TNF-α (same concentrations as in A.). D. Fold luciferase activity in PHFA transfected with flhEAAT2Prom-luc or various deletion mutants of hEAAT2 and non-transfected controls treated with the indicated compounds for four days.
Primer Extension Analysis and Nuclear Run-on Assays. Primer extension assays were performed as described (Su et al., 2000, Oncogene 19(30):3411-3421). A primer with the sequence 5′-[…]-3′ (SEQ ID NO:6) complementary to the 5′ UTR of the hEAAT2 cDNA was used for this assay. Nuclear run-on assays were performed as described (Su et al., 1997, Proc Natl Acad Sci USA 94(17):9125-9130).
To examine whether stimulation of hEAAT2 expression involves transcriptional changes, nuclear run-on assays were performed.

[2] = test system: hEAAT2 mRNA; assay: Northern blot of hEAAT2 mRNA in PHFA treated with modulators; format: cell-based, human
Description: as §1
(§2) Northern and Western Blotting Assays. Total cellular RNA was isolated by the guanidinium/phenol extraction method and Northern blotting was performed as described (Huang et al., 2001, Oncogene 20(48):7051-7063; Su et al., 2000, Oncogene 19(30):3411-3421; Su et al., 2001, Nucleic Acids Res 29(8):1661-1671). Western blotting assays were performed as described (Su et al., 1998, Proc Natl Acad Sci USA 95(24):14400-14405; Su et al., 2002, Oncogene 21(22):3592-602).
Positive and Negative Regulation of hEAAT2 Transcription, Promoter Activity and mRNA Levels in PHFA. Several enhancers of GLT-1 expression in rat astrocytes have been identified, including epidermal growth factor (EGF), transforming growth factor-α (TGF-α) and dibutyryl cyclic AMP (dbcAMP) (Swanson et al., 1997, J Neurosci 17(3):932-940; Zelenaia et al., 2000, Mol Pharmacol 57(4):667-678). Based on these considerations, experiments were performed to determine if these agents similarly modify human hEAAT2 expression in PHFA. Consistent with previous observations in rat astrocytes, 7-day treatment with EGF, TGF-α, and two analogs of cAMP, dbcAMP and bromo-cAMP, stimulated hEAAT2 mRNA expression in PHFA, whereas TNF-α decreased expression (FIG. 4B). […] In contrast, TNF-α decreased expression by 48 h (FIG. 4C).

[3] = test system: hEAAT2 promoter; assay: flhEAAT2Prom-luc and deletion mutant luciferase reporter assay in PHFA treated with modulators; format: cell-based, human
Description: as §1
Construction of hEAAT2 Promoter Deletion Mutants and Performance of the Luciferase Assays. 5′-deletion mutants of the hEAAT2 promoter were made with exonuclease III digestion using the Erase-A-Base System (Promega) as described for the PEG-3 promoter (Su et al., 2000, Oncogene 19(30):3411-3421). The flhEAAT2Prom-luc and flhEAAT2Prom-luc deletion mutants were cloned into the pGL3-basic luciferase reporter vector (Promega) and luciferase reporter assays were performed as described (Su et al., 2000, Oncogene 19(30):3411-3421; Su et al., 2001, Nucleic Acids Res 29(8):1661-1671), except that instead of using lipofectamine, which was toxic to PHFA, the calcium phosphate precipitation transfection technique was used (Babiss et al., 1986, Proc Natl Acad Sci USA 83(7):2167-2171).
Preferential Expression of the hEAAT2 Promoter in PHFA and Deletion Analysis of the hEAAT2 Promoter. hEAAT2 is expressed in brain-derived cells, mainly astrocytes (Tanaka et al., 1997, Science 276(5319):1699-1702; Anderson et al., 2000, Glia 32(1):1-14). Experiments were performed to confirm hEAAT2 promoter activity in normal human astrocytes and to determine expression levels in other cell types (FIG. 2A). Primary early passage and established human normal and tumor cell lines were co-transfected with a putative full-length ˜2.5 kb hEAAT2 promoter, a SacII fragment extending from bp −2426 to bp +44, was cloned into the pGL3-basic vector (Promega), where it drove expression of the firefly luciferase (luc) gene, and a pSV-β-galactosidase expression plasmid. Relative fold expression of a full length hEAAT2 promoter-luciferase (flhEAAT2Prom-luc) construct was determined as described (Su et al., 2000, Oncogene 19(30):3411-3421; Su et al., 2001, Nucleic Acids Res 29(8):1661-1671), and activity versus transfection with a pSV-β-galactosidase plasmid was calculated as described (Su et al., 2000, Oncogene 19(30):3411-3421; Su et al., 2001, Nucleic Acids Res 29(8):1661-1671) to equalize for differences in transfection efficiency.
To examine further the relationship between hEAAT2 and treatment with the various glutamate transporter modulators, transient transfection assays were performed in PHFA using the flhEAAT2Prom-luc constructs and various deletions thereof (FIG. 4D). […] In the case of dbcAMP, promoter activity was enhanced by ˜3-fold.

[4] = test system: glutamate uptake by PHFA; conditions: Fine et al., 1996; cited from earlier work
[5] = test system: hEAAT2 expression; assay: hEAAT2 expression in PHFA, readout not specified; format: cell-based, human
[6] = test system: hEAAT2 protein; assay: Western blot of EAAT2 protein in PHFA; format: cell-based, human
Description: FIG. 5A-E. Effect of pharmacological inhibitors on hEAAT2 promoter activity, and mRNA and protein expression in PHFA following various treatment protocols. A. hEAAT2 promoter activity in PHFA, either untreated (−) or treated with EGF (30 ng/ml), in the absence (−) or presence (+) of KT5720 (5 μM), AG1478 (1 μM), PDTC (100 μM), wortmannin (WRT) (100 nM) or PD98049 (PD) (50 μM). B. hEAAT2 promoter activity in PHFA, either untreated (−) or treated with bromo-cAMP (250 μM) in the absence (−) or presence (+) of KT5720 (5 μM), AG1478 (1 μM), PDTC (100 μM), wortmannin (WRT) (100 nM) or PD98049 (PD) (50 μM). C. hEAAT2 promoter activity in PHFA, either untreated (−) or treated with TNF-α (200 U/ml), in the absence (−) or presence (+) of KT5720 (5 μM), AG1478 (1 μM), PDTC (100 μM), wortmannin (WRT) (100 nM) or PD98049 (PD) (50 μM). D. The effect of the various treatment protocols on hEAAT2 and GAPDH mRNA levels. Upper panel presents relative hEAAT2 RNA expression versus GAPDH expression relative to control untreated or treated samples based on scanning of autoradiograms. Lower panel, actual Northern blots. E. The effect of the various treatment protocols on EAAT2 and ACTIN protein levels. Upper panel presents relative EAAT2 protein expression versus ACTIN expression relative to control untreated or treated samples based on scanning of autoradiograms. Individual experiments were performed 3 times using triplicate samples and S.D. from the mean is presented.
as §2

## TNF-α
[1]
  relative rate of transcription of hEAAT2 RNA compared with GAPDH: decreased
[2]; 7-day treatment, EGF 30 ng/ml, TGF-α 30 ng/ml, dbcAMP 200 μM, bromo-cAMP 100 μM, TNF-α 200 U/ml
  hEAAT2 mRNA expression: decreased
[2]; time course, bromo-cAMP enhanced, TNF-α decreased
  time by which hEAAT2 mRNA expression was changed: ≤ 48 h
[3]
  hEAAT2 promoter activity (in words): inhibited
[4]
  glutamate uptake by PHFA: inhibits
[5]
  hEAAT2 expression: decreased
[6]
  hEAAT2 protein levels: decreased
